{
  "source": "patent US20030220482A1",
  "about": "“Novel peptide antagonist of CXCR4 derived from the N-terminus of the viral chemokine vMIP-II” (priority 2000, published 2003)",
  "key": {"Sup T1 cells": {"test_system": "Sup T1 cells", "assay": "Chemotaxis of Sup T1 cells induced by SDF-1", "type": "cell-based", "protocol": "Migration of Sup T1 cells was assessed in disposable Transwell trays (Costar, Cambridge, Mass.) with 6.5 -mm diameter chambers and membrane pore size of […]. […] For peptide inhibition experiments, the cells were preincubated with various concentrations of the peptide for 15 min at 25° C. The peptide at the same concentration was also added to the lower well. After incubation at 37° C. and 5% CO2 for 4 h, cells that migrated to the lower well were counted. Chemotactic migration was determined by subtraction of cells migrated in medium alone (Blank control experiment)."}, "CCR5 [1]": {"biological_target": "T1, CCR5 (Homo sapiens, UniProt P51681)", "T1 construct": "expressed in transfected cells; host or cells: 293 cells", "T1 sequence (P51681 whole entry)": "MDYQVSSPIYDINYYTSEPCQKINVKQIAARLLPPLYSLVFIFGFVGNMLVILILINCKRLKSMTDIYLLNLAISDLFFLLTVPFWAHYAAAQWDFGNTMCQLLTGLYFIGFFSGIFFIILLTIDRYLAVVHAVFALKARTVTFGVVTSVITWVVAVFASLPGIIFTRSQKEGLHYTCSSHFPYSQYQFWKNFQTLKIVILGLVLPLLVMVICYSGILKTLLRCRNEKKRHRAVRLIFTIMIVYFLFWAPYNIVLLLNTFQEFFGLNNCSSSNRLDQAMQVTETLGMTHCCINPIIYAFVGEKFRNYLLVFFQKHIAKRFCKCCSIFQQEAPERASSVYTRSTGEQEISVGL", "assay": "125I-MIP-1β competitive binding to CCR5 (CCR5-transfected 293 cells)", "conditions": "competitive binding with radiolabeled MIP-1β", "excerpt": "^125I-MIP-1β Competitive Binding to CCR5\nFollowing a similar experimental procedure as described above, 293 cells transfected with CCR5 and ^125I-MIP-1β were used to determine the specific binding activity of peptides to CCR5."}, "CXCR4 [2]": {"biological_target": "T2, CXCR4 (Homo sapiens, UniProt P61073)", "T2 sequence (P61073 whole entry, the tested form may be a part)": "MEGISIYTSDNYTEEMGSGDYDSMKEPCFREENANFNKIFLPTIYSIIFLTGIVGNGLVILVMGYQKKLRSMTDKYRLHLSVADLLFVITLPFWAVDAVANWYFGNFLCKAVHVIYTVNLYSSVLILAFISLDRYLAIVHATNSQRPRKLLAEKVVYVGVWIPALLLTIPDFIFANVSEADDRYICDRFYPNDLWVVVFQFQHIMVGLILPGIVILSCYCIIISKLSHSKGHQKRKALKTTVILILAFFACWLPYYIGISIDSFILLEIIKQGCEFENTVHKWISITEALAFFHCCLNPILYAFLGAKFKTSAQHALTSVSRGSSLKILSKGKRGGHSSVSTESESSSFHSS", "assay": "Gene reporter cell-cell fusion assay, HIV-1 coreceptor function of CXCR4", "type": "cell-based", "set-up": "expressed in transfected cells; host or cells: NIH/3T3 cells", "conditions": "for inhibition of T- and dual-tropic HIV-1 gp120-mediated cell-cell fusion via CXCR4 (in words): vSC60 (BH10) T-tropic and 89.6 dual-tropic isolates"}, "CCR5 [3]": {"biological_target": "T1, CCR5", "assay": "Intracellular calcium influx in CCR5 transfected 293 cells", "type": "cell-based", "protocol": "(§1) Sup T1 cells and CCR5 transfected 293 cells were used to measure the intracellular calcium influx. [Ca^2+]i was measured using excitation at 340 and 380 nm on a fluorescence spectrometer (Perkin Elmer LS50). Calibration was performed using 10% Triton X-100 for total fluorophore release and 0.5 M EGTA to chelate free Ca^2+. Intracellular Ca^2+ concentrations were calculated by using the fluorescence spectrometer measurement program."}, "CXCR4 [4]": {"biological_target": "T2, CXCR4", "assay": "125I-SDF-1α competitive binding to CXCR4 (CEM-T4 cells)", "set-up": "endogenous in cells; host or cells: CEM-T4 cells", "conditions": "for CXCR4 binding (in words): 125I-SDF-1α competitive binding, FIG. 1", "protocol": "^125I-SDF-1α Competitive Binding to CXCR4\nCEM-T4 cells were harvested and washed twice with PBS. […] Nonspecific binding was determined by the addition of 100 nM unlabeled SDF-1α Samples were incubated for 60 min at room temperature. The incubation was terminated by separating the cells from the binding buffer by centrifugation and washing once with 500 μl of cold binding buffer. Bound ligands were quantitated by counting γ emissions."}, "CCR5 [5]": {"biological_target": "T1, CCR5", "assay": "Gene reporter cell-cell fusion assay, HIV-1 coreceptor function of CCR5", "type": "cell-based"}, "CXCR4 [6]": {"biological_target": "T2, CXCR4", "assay": "CXCR4 internalization", "type": "cell-based", "set-up": "CEM-T4 cells were harvested and washed twice with PBS; endogenous in cells; host or cells: CEM-T4 cells"}, "CXCR4 [7]": {"biological_target": "T2, CXCR4", "assay": "anti-CXCR4 mAb 12G5 competitive binding (flow cytometry, Sup T1 cells)", "set-up": "endogenous in cells", "conditions": "relative to SDF-1", "protocol": "Sup T1 cells (2×10^5) were washed with FACS buffer (0.5% bovine serum albumin, 0.05% sodium azide in PBS) and incubated with an anti-CXCR4 monoclonal antibody (mAb) 12G5 (10 μg/ml) for 30 min at 4° C. After washing with FACS buffer, cells were incubated with 10 μg FITC conjugated goat anti-mouse IgG (Southern Biotechnology Associates, Inc. Birmingham, Ala.) for 30 min at 4° C. After washing twice with FACS buffer, cells were fixed in the fixing buffer (2% palaformaldehyde in PBS) and then analyzed on a FACScan flow cytometer (Coulter EPICS Elite, Coolten Corp., Hialeah, Fla.)."}, "CXCR4 [8]": {"biological_target": "T2, CXCR4", "assay": "Intracellular calcium influx in Sup T1 cells", "type": "cell-based", "set-up": "endogenous in cells", "protocol": "as §1"}},
  "note": "Entries after “also recorded” stand apart in the source; their conditions may differ. Peptide text beside a SMILES is read from it.",
  "data": [
    {"compound": "CC(C)C[C@H](NC(=O)[C@H](CS)NC(=O)[C@H](CS)NC(=O)[C@H](CCCCN)NC(=O)[C@H](CC(=O)O)NC(=O)[C@@H]1CCCN1C(=O)[C@H](CCCNC(=N)N)NC(=O)[C@H](Cc1c[nH]cn1)NC(=O)[C@H](Cc1c[nH]c2ccccc12)NC(=O)[C@H](CO)NC(=O)[C@H](C)NC(=O)CNC(=O)[C@@H](N)CC(C)C)C(=O)NCC(=O)N[C@@H](Cc1ccc(O)cc1)C(=O)N[C@@H](CCC(N)=O)C(=O)N[C@@H](CCCCN)C(=O)N[C@@H](CCCNC(=N)N)C(=O)N1CCC[C@H]1C(=O)N[C@@H](CC(C)C)C(=O)N1CCC[C@H]1C(N)=O", "note": "[V1] (H-LGASWHRPDKCCLGYQKRPLP-NH2; N-terminus and C-terminus assumed)", "values": [
      {"measurement": "inhibition of chemotactic activity of SDF-1 (in words)", "setting": "Sup T1 cells", "value": "inhibit the chemotactic activity of SDF-1 in a concentration dependent manner"},
      {"measurement": "CCR5 binding (in words)", "setting": "CCR5 [1]", "value": "did not display any interaction"},
      {"measurement": "inhibition of T- and dual-tropic HIV-1 gp120-mediated cell-cell fusion via CXCR4 (in words)", "setting": "CXCR4 [2]", "value": "showed inhibition"},
      {"measurement": "signaling activity via CCR5 (calcium influx, in words)", "setting": "CCR5 [3]", "value": "neither displayed signaling activity"},
      {"measurement": "blocking of signal induced by MIP-1β via CCR5 (in words)", "setting": "CCR5 [3]; MIP-1β 100 nM", "value": "nor blocked the signal"},
      {"measurement": "fold less potent than SDF-1, 125I-SDF-1α competition", "setting": "CXCR4 [4]; relative to SDF-1", "value": "~70", "unit": "fold"},
      {"measurement": "effect on M-tropic HIV-1 gp120-mediated cell-cell fusion via CCR5 (in words)", "setting": "CCR5 [5]", "value": "displayed no effect"},
      {"measurement": "induction of CXCR4 internalization (in words)", "setting": "CXCR4 [6]", "value": "induction of CXCR4 internalization"},
      {"measurement": "fold less potent than SDF-1, mAb 12G5 competition", "setting": "CXCR4 [7]", "value": "about 33 fold"},
      {"measurement": "blocking of SDF-1 signal (calcium influx, in words)", "setting": "CXCR4 [8]; peptide 200 μM, SDF-1 100 nM", "value": "almost completely blocked SDF-1 signal"},
      {"measurement": "signaling activity via CXCR4 (calcium influx, in words)", "setting": "CXCR4 [8]; various concentrations", "value": "did not show any signaling activity"}
    ]},
    {"compound": "HRPDKCCLGYQKR (v-MIPII derived peptide) [V2, VMIP-II, 6-18]", "values": [
      {"measurement": "CCR5 binding (in words)", "setting": "CCR5 [1]", "value": "does not bind"},
      {"measurement": "inhibition of T- and dual-tropic HIV-1 gp120-mediated cell-cell fusion via CXCR4 (in words)", "setting": "CXCR4 [2]", "value": "did not show any activity"},
      {"measurement": "effect on CCR5 signal transduction (in words)", "setting": "CCR5 [3]", "value": "did not show any effect"},
      {"measurement": "CXCR4 binding (in words)", "setting": "CXCR4 [4]", "value": "significant loss in CXCR4 binding; also recorded: does not bind"},
      {"measurement": "effect on M-tropic HIV-1 gp120-mediated cell-cell fusion via CCR5 (in words)", "setting": "CCR5 [5]", "value": "displayed no effect"},
      {"measurement": "effect on CXCR4 signal transduction (in words)", "setting": "CXCR4 [8]", "value": "did not show any effect"}
    ]},
    {"compound": "LGASWHRPDK (v-MIPII derived peptide) [V3, VMIP-II, 1-10]", "values": [
      {"measurement": "CXCR4 binding (in words)", "setting": "CXCR4 [4]", "value": "retained some activity"}
    ]},
    {"compound": "SDF-1: Recombinant human chemokine, Stromal cell Derived Factor-1, a natural CXCR4 ligand, used as control [reference compound]", "values": [
      {"measurement": "inhibition of cell-cell fusion", "setting": "CXCR4 [2]; at 200 nM", "value": 45, "unit": "%"}
    ]}
  ]
}
